# Laboratory results: patent US11926596B2, “Inhibitors of Rho associated coiled-coil containing protein kinase” (KADMON CORPORATION, LLC, priority 2017, dated 2024)
# pIC50: −log10 of the molar value.
# Assays:
# [1] = target: T1, recombinant ROCK2 (amino acids 1-552) (Homo sapiens, UniProt O75116); experiment: Z'-lyte kinase assay, ROCK2; type: biochemical; conditions: for inhibition at 3 µM / inhibition at 1 µM / inhibition at 0.5 µM: read-out: ROCK2 % inh
# T1 construct: ROCK2 (amino acids 1-552) proteins were purchased from ThermoFisher Scientific; purchased ThermoFisher Scientific
# Description: (§1) Determination of compounds ROCK inhibitory activity in vitro (Z'lyte assay): recombinant ROCK1 (amino acids 1-535) and ROCK2 (amino acids 1-552) proteins were purchased from ThermoFisher Scientific. Compounds activities were measured by Z′-lyte kinase kit (ThermoFisher Scientific) and IC50s were calculated.
# (§2) Table 2, below, provides in vitro and cellular inhibition of ROCKs by compounds of the invention. Compounds activities were measured by Z′-lyte kinase kit (ThermoFisher Scientific). […] IC50s were calculated using the GraphPad Prism software with kinase activities data that were collected from points 9 serial dilution of compounds treatment. The ROCK inhibition in A7R5 cells and NIH3T3 (Acta2-Luc) cells was performed as described above.
# [2] = target: T2, recombinant ROCK1 (amino acids 1-535) (Homo sapiens, UniProt Q13464); experiment: Z'-lyte kinase assay, ROCK1; type: biochemical; conditions: for inhibition at 3 µM / inhibition at 0.5 µM: read-out: ROCK1 % inh
# T2 construct: recombinant ROCK1 (amino acids 1-535) and ROCK2; purchased ThermoFisher Scientific
# Description: as §1, §2
# [3] = system: phospho-myosin light chains (ppMlc, Thr18/Ser19) in A7R5 cells; experiment: A7R5 in-cell ELISA, phospho-myosin light chain; type: cell-based, rat; conditions: for pIC50 / inhibition at 1 µM / inhibition at 10 µM: Rattus norvegicus, A7R5 cells; for pIC50: 1.5 h, 90 min, read-out: pMLC IC50 A7R5; for inhibition at 1 µM / inhibition at 10 µM: read-out: pMLC % inh A7R5; for cellular ROCK inhibition compared with Comparative Example 2: phosphorylation of the ROCK target pMLC in A7R5 cells
# Description: Determination of compounds ROCK inhibitory activity in A7R5 cells: rat aortic smooth muscle cell line A7R5 cells were maintained and treated in DMEM medium with 10% of fetal bovine serum. Cells were seeded with density of 5,000 cells/well in 96-well plates for 24 hours and subsequently treated 90 min with testing compounds. Cells were then fixed and processed according to the In-Cell ELISA Colorimetric Detection Kit manual (Thermo Scientific). Cellular phospho-myosin light chains (ppMlc, Thr18/Ser19) levels were determined after treatments of DMSO control or test compounds using the In-Cell ELISA kit. The percent inhibition rate was calculated by applying the data obtained with 1 μM (or 10 μM) compound treatment to the formula, [1-(compound/DMSO)]×100%. ppMlc data obtained with 9 points 2-fold serial dilution of compounds were applied to the nonlinear regression curve fit function of the GraphPad Prism software to calculate the In cell IC50s.
# A7R5 cells were treated with 9 points 2 fold serial dilution of compounds and ppMlc (T18/S19) levels were determined in order to calculate cellular IC50s of the compounds.
# Two steps of measurements were adopted for pMLC/A7R5 IC50. Percent inhibition rates were calculated with a single dose (1 μM or 10 μM) compounds treatment to screen for active compounds and then cellular IC50s were measured only in compounds that have over 50% of inhibition rates.
# T1 sequence (O75116 1-552): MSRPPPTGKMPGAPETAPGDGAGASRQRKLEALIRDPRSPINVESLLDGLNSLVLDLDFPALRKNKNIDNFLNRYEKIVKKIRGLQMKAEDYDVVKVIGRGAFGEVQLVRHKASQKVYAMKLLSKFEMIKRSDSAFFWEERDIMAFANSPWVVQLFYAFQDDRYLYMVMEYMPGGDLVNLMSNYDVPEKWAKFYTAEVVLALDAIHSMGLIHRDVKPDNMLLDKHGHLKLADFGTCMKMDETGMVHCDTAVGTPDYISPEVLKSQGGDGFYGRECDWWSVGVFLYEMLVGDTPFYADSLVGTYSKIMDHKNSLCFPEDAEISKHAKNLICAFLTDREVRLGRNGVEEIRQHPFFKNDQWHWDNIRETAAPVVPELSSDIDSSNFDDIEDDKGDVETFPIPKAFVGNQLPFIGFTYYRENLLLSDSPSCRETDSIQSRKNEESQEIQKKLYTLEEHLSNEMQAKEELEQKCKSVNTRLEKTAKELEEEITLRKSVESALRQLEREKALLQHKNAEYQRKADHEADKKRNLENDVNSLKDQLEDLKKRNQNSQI
# T2 sequence (Q13464 1-535): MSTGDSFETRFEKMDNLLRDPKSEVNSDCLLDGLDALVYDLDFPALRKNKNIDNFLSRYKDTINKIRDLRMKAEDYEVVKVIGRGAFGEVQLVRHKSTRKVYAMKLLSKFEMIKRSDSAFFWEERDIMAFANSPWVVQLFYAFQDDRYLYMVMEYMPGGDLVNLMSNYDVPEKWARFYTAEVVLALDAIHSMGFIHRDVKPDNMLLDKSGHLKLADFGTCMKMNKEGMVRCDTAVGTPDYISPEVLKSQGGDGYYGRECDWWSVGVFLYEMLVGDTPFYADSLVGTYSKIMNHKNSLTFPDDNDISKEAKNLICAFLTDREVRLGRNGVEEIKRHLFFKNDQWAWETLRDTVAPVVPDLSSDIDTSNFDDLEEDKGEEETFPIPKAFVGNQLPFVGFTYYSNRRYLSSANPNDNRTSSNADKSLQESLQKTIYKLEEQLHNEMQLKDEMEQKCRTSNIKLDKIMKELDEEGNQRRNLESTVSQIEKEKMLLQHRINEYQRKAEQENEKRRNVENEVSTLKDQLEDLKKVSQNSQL
SMILES,inhibition at 3 µM [2],pIC50 [3],inhibition at 1 µM [1],pIC50 [1],inhibition at 10 µM [3],also measured
"NC(C(=O)Nc1ccc2[nH]ncc2c1)c1ccc(Cl)cc1 (stereo not shown) [Comp2, reference compound]",92.2%,5.36,,,,inhibition at 3 µM [1]: 97.5%
"NC(C(=O)Nc1ccc2[nH]ncc2c1)c1ccccc1 (stereo not shown) [Comp3, reference compound]",91.5%,4.96,,,,inhibition at 3 µM [1]: 97.4%
"COc1ccc(C(N)C(=O)Nc2ccc3[nH]ncc3c2)cc1 (stereo not shown) [Comp4, reference compound]",95.8%,5.21,96.5%,,,
"Cc1ccc(C(N)C(=O)Nc2ccc3[nH]ncc3c2)cc1 (stereo not shown) [Comp5, reference compound]",99%,,96.2%,7.48,,pIC50 [2]: 5.88
"NC(C(=O)Nc1ccc2[nH]ncc2c1)c1cccc(F)c1 (stereo not shown) [Comp6, reference compound]",99%,5.16,,7.38,,inhibition at 3 µM [1]: 98.8%; pIC50 [2]: 7.38
"NC(C(=O)Nc1ccc2[nH]ncc2c1)c1ccccc1F (stereo not shown) [Comp7, reference compound]",100%,4.74,,6.52,,inhibition at 3 µM [1]: 100%; pIC50 [2]: 6.78
"O=C(Nc1ccc2[nH]ncc2c1)C1CNc2ccccc2C1 (stereo not shown) [Example 3, N-(1H-indazol-5-yl)-1,2,3,4-tetrahydroquinoline-3-carboxamide]",0%,,,,,inhibition at 3 µM [1]: 0%; inhibition at 1 µM [3]: 25%
"O=C(Nc1ccc2[nH]ncc2c1)C1Cc2ccccc2CN1 (stereo not shown) [Example 4, N-(1H-indazol-5-yl)-1,2,3,4-tetrahydroisoquinoline-3-carboxamide]",,,,< 6.00,18%,pIC50 [2]: < 6.00
"O=C(Nc1ccc2[nH]ncc2c1)C1NCCc2ccccc21 (stereo not shown) [Example 5, N-(1H-indazol-5-yl)-1,2,3,4-tetrahydroisoquinoline-1-carboxamide]",,4.45,,7.11,,pIC50 [2]: 7.42
"O=C(Nc1ccc2[nH]ncc2c1)C1NCc2ccccc21 (stereo not shown) [Example 6, N-(1H-indazol-5-yl)isoindoline-1-carboxamide]",,,,< 6.00,1%,pIC50 [2]: 6.38
"CNC(C(=O)N(CCN(C)C)c1ccc2[nH]ncc2c1)c1cccc(OC)c1 (stereo not shown) [Example 7, N-(2-(dimethylamino)ethyl)-N-(1H-indazol-5-yl)-2-(3-methoxyphenyl)-2-(methylamino)acetamide]",,,11%,5.79,2%,inhibition at 0.5 µM [2]: 16%
"O=C(Nc1ccc2[nH]ncc2c1)C1CNCc2ccccc21 (stereo not shown) [Example 8, N-(1H-indazol-5-yl)-1,2,3,4-tetrahydroisoquinoline-4-carboxamide]",,5.58,76.7%,,,
"CC1NC(C(=O)Nc2ccc3[nH]ncc3c2)c2ccccc21 (stereo not shown) [Example 9, N-(1H-indazol-5-yl)-3-methylisoindoline-1-carboxamide]",,,,,,inhibition at 1 µM [3]: 4%
"O=C(Nc1ccc2[nH]ncc2c1)C1CCCN1 (stereo not shown) [Example 10, N-(1H-indazol-5-yl)pyrrolidine-2-carboxamide]",,,,,,inhibition at 1 µM [3]: 1%
"O=C(Nc1ccc2[nH]ncc2c1)C1CCNC1 (stereo not shown) [Example 11, N-(1H-indazol-5-yl)pyrrolidine-3-carboxamide]",,,,,,inhibition at 1 µM [3]: 1%
"O=C(Nc1ccc2[nH]ncc2c1)[C@@H]1CC[C@H](c2ccccc2)N1 [Example 12, (2S,5R)-N-(1H-indazol-5-yl)-5-phenylpyrrolidine-2-carboxamide]",,,,,,inhibition at 1 µM [3]: 1%
"O=C(Nc1ccc2[nH]ncc2c1)C1CCCCN1 (stereo not shown) [Example 13, N-(1H-indazol-5-yl)piperidine-2-carboxamide]",,,,,,inhibition at 1 µM [3]: 11%
"CCNC(C(=O)Nc1ccc2[nH]ncc2c1)c1ccc(Cl)cc1 (stereo not shown) [Example 17, 2-(4-chlorophenyl)-2-(ethylamino)-N-(1H-indazol-5-yl)acetamide]",93.3%,6.25,,6.61,,inhibition at 3 µM [1]: 96.3%; pIC50 [2]: > 8.00; cellular ROCK inhibition compared with Comparative Example 2 [3]: enhanced
"CC(C)NC(C(=O)Nc1ccc2[nH]ncc2c1)c1ccc(Cl)cc1 (stereo not shown) [Example 18, 2-(4-chlorophenyl)-N-(1H-indazol-5-yl)-2-(isopropylamino)acetamide]",89.6%,5.60,,,,inhibition at 3 µM [1]: 94.1%; cellular ROCK inhibition compared with Comparative Example 2 [3]: enhanced
"CNC(C(=O)Nc1ccc2[nH]ncc2c1)c1ccc(F)cc1 (stereo not shown) [Example 19, 2-(4-fluorophenyl)-N-(1H-indazol-5-yl)-2-(methylamino)acetamide]",21.4%,5.79,,6.80,,inhibition at 3 µM [1]: 96.6%; pIC50 [2]: 6.76
"CNC(C(=O)Nc1ccc2[nH]ncc2c1)c1ccc(-c2ccccc2F)cc1 (stereo not shown) [Example 33, 2-(2′-fluoro-[1,1′-biphenyl]-4-yl)-N-(1H-indazol-5-yl)-2-(methylamino)acetamide]",,,66.5%,,48%,

# The next lines start with results.
inhibition at 3 µM [2],pIC50 [3],inhibition at 1 µM [1],pIC50 [1],SMILES,inhibition at 10 µM [3],also measured
,,,6.36,"COc1cccc(C(NCCN(C)C)C(=O)Nc2ccc3[nH]ncc3c2)c1 (stereo not shown) [Example 34, 2-((2-(dimethylamino)ethyl)amino)-N-(1H-indazol-5-yl)-2-(3-methoxyphenyl)acetamide]",49%,
,,71%,,"CNC(C(=O)Nc1ccc2[nH]ncc2c1)c1ccccc1OC (stereo not shown) [Example 35, N-(1H-indazol-5-yl)-2-(2-methoxyphenyl)-2-(methylamino)acetamide]",,inhibition at 1 µM [3]: 16%
,,98%,7.14,"CCOc1ccc(C(NC)C(=O)Nc2ccc3[nH]ncc3c2)cc1 (stereo not shown) [Example 43, 2-(4-ethoxyphenyl)-N-(1H-indazol-5-yl)-2-(methylamino)acetamide]",4%,
,,,6.34,"CNC(C(=O)Nc1ccc2[nH]ncc2c1)c1ccc(OC(C)C)cc1 (stereo not shown) [Example 44, N-(1H-indazol-5-yl)-2-(4-isopropoxyphenyl)-2-(methylamino)acetamide]",42%,
,,22%,,"CNC(C(=O)Nc1ccc2[nH]ncc2c1)c1ccc(-c2ccc(OC)cc2)cc1 (stereo not shown) [Example 45, N-(1H-indazol-5-yl)-2-(4′-methoxy-[1,1′-biphenyl]-4-yl)-2-(methylamino)acetamide]",4%,
,,67%,,"COCCNC(C(=O)Nc1ccc2[nH]ncc2c1)c1cccc(OC)c1 (stereo not shown) [Example 46, N-(1H-indazol-5-yl)-2-((2-methoxyethyl)amino)-2-(3-methoxyphenyl)acetamide]",27%,
,,,7.15,"CNC(C(=O)Nc1ccc2[nH]ncc2c1)c1ccc(F)c(OC)c1 (stereo not shown) [Example 48, 2-(4-fluoro-3-methoxyphenyl)-N-(1H-indazol-5-yl)-2-(methylamino)acetamide]",,inhibition at 0.5 µM [1]: 76%; inhibition at 0.5 µM [2]: 87%
,,,7.06,"CCNC(C(=O)Nc1ccc2[nH]ncc2c1)c1cccc(C)c1 (stereo not shown) [Example 49, 2-(ethylamino)-N-(1H-indazol-5-yl)-2-(m-tolyl)acetamide]",,inhibition at 0.5 µM [1]: 76%; inhibition at 0.5 µM [2]: 88%
,,,7.68,"CNC(C(=O)Nc1ccc2[nH]ncc2c1)c1cccc(OC(F)(F)F)c1 (stereo not shown) [Example 50, N-(1H-indazol-5-yl)-2-(methylamino)-2-(3-(trifluoromethoxy)-phenyl)acetamide]",,inhibition at 0.5 µM [1]: 93%; inhibition at 0.5 µM [2]: 93%
